Source: patent US20240374680A1, “PHARMACEUTICAL COMPOSITION FOR TREATMENT OF VIRAL INFECTIONS” (Virenc AB, priority 2021, published 2024)
pIC50: −log10 of the molar value. Where no end group is shown, it is not given here.

Tests used:
[1] = system: Kunjin virus (KUNV); assay: Flavivirus inhibition assay, crystal violet-based plaque assay (Vero cells); format: cell-based; conditions: for reduction of viral load: L- or D-PLNC8 αβ (1:1)
[2] = Carboxyfluorescein (CF) release assay; format: biochemical
Protocol: Liposomes were prepared by thin film hydration, followed by extrusion^19. Stock solutions of the lipids 1-palmitoyl-2-oleoyl-sn-glycero3-phosphatidylcholine (POPC), 1-palmitoyl-2-oleoyl-sn-glycero-3-phosphoL-serine (POPS) and cholesterol (Chol) were mixed at molar ratio 95:0:5, 65:30:5, 70:0:30, 91:1:8 and 81:11:8. The solvent was slowly evaporated via nitrogen stream, then the vials were dried in a vacuum desiccator overnight. Dry films were hydrated by addition of 1 mL 5(6)-carboxyfluorescein solution. The CF solution, presenting self-quenching concentration of CF, was prepared with 50 mM CF dissolved in 10 mM PB buffer and 90 mM NaCl, followed by pH adjustment. CF solution was dispensed on the lipid cake and incubated for 10 min under gentle shaking (50 min-1 on orbital shaker), followed by 1 min vortexing. The liposomes were extruded 21 times with a mini extruder (Avanti Polar Lipids, Inc.), through a 0.1 um membrane (Nucleapore track-etched hydrophilic membrane). The lipids were purified by gel filtration through a PD Mini Trap G-25 column by elution in PB buffer (10 mM).
To study peptide efficacy on liposome membrane disruption, the liposome fluorescence was monitored upon peptide addition by microplate reader (Tecan Infinite M1000 Pro, λex=485 nm, λem=520 nm). Liposomes were diluted to a final concentration of 25 μM with 10 mM PB buffer and incubated with PLNC8 α, PLNC8 β and PLNC8 α/β at concentration of 10^−5-10^2 μM in a 96 well plate at a final volume of 200 μL. Due to the self-quenching concentration of carboxyfluorescein (CF) inside the liposomes, any fluorescence of the liposome-peptide system could be attributed to the liposome membrane disruption. Fluorescence was monitored prior to peptide addition (F0), and continuatively for 30 min. Total CF release (FT) was achieved through addition of 1% Triton X-100. Instantaneous CF release (%) was calculated through the formula 100×(F−F0)/(FT−F0), where F is the instantaneous fluorescence.

[3] = system: human cells; conditions: previously shown (ref. 16); cited from earlier work
[4] = system: Kunjin virus (KUNV); assay: Peptide treatment of KUNV-infected A549 cells (viral mRNA, extracellular virions); conditions: A549 infected 1 h, then 10 μM, 48 h; cell culture media
[5] = system: Influenza A virus (H1N1/CA09pdm); assay: Influenza A virus inhibition assay (plaque assay); format: cell-based; conditions: Influenza A virus (1×10^3) pre-treated 1 h at 37° C.; read-out: concentration for 50% reduction of influenza A PFU
[6] = system: Langat virus (LGTV); format: biochemical; conditions: 2 h
[7] = system: SARS-CoV-2; assay: SARS-CoV-2 virus inhibition assay (plaque assay); format: cell-based, Severe Acute Respiratory Syndrome Coronavirus 2; conditions: SARS-CoV-2 (1×10^3) exposed 1 h at 37° C., then Vero cells; read-out: concentration for 50% reduction of PFU
[8] = system: Langat virus (LGTV); format: cell-based

With “PLNC8 β: peptide of SEQ ID NO:1; statement covers L- and D-enantiomers (FIG. 7) (SVPTSVYTLGIKILWSAYKHRKTIEKSFNKGFYH; also: L- or D-enantiomer covered; listed as Lactobacillus plantarum)” as the substance, how does the “efficiency at eliminating KUNV, single peptides compared” value ([1]; 20 μM, L- and D-enantiomers (FIG. 7)) read?
Its value is “more efficient than PLNC8 α at eliminating KUNV”.

With Plantaricin NC8 (PLNC8) αβ [PLNC8 αβ] as the substance, how does the “reduction of viral load” value ([1]; 0.1 μM, KUNV MOI 0.1, 0.01, 0.001, 1 h) read?
The value was 80%.

What about the “reduction of viral load” value ([1]; 1 μM, KUNV MOI 0.1, 0.01, 0.001, 1 h) of the same substance?
The value was 95%.

What about the elimination of virions ([1]; ≥10 μM, KUNV MOI 0.1, 0.01, 0.001, 1 h) of the same substance?
Its elimination of virions is “completely eliminates all virions”.

What about the “susceptibility of liposomes (CF release)” value ([2]; POPC:POPS:Chol (70:0:30), mimicking a eukaryotic plasma membrane) of the same substance?
The value was “resilient”.

What about the “susceptibility of liposomes (CF release)” value ([2]; POPC:POPS:Chol (81:11:8), mimicking a eukaryotic ER membrane) of the same substance?
The value was “very susceptible”.

And the “susceptibility of liposomes (CF release)” value ([2]; POPC:POPS:Chol (91:1:8))?
Its value is “more susceptible”.

And the “cytotoxicity towards human cells” value [3]?
The value was “no cytotoxicity towards human cells”.

What about the “reduction of extracellular virion load” value [4] of the same substance?
The value was 70-80%.

Which results are given for “SVPTSVYTLGIKILWSAYKHRKTIEKSFNKGFYH [L-PLNC8 β]”?
pIC50 [5]: < 4.70; permeabilization of the viral envelope (Sytox Green) [6]: permeabilization of LGTV; pIC50 [7]: 6.00 to 6.05; decrease of viral load [8]: > 99%

With “SVPTSVYTLGIKILWSAYKHRKTIEKSFNKGFYH, SEQ ID NO:1 [D-PLNC8 β]” as the substance, how does the pIC50 [5] read?
The pIC50 was 4.72.

And the “permeabilization of the viral envelope (Sytox Green)” value [6]?
Its value is “permeabilized”.

What about the pIC50 [7] of the same substance?
The pIC50 was 5.85.
